According to US20260285850A1, “SUBSTITUTED OXAZOLIDINONES AND IMIDAZOLINONES AS HERBICIDES” (FMC CORPORATION, priority 2023, published 2026):

Assays:
Type in all cases: in vivo
[1] = tested on: barnyardgrass (Echinochloa crus-galli); assay: Test A preemergence soil spray, visual injury rating 0-100; conditions: 10 days, 0 = no effect, 100 = complete control
Outline: (§1)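 Compounds formulated in a non-phytotoxic solvent with surfactant are sprayed onto soil of freshly planted loam-sand pots ahead of emergence, or onto emerged plants 2-10 cm tall. After a 10-day greenhouse period, each species is scored visually for injury against untreated controls.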

[2] = tested on: blackgrass (Alopecurus myosuroides); assay: as above; conditions: 10 days, 0 = no effect, 100 = complete control
Outline: as §1

corn (Zea mays) [3] = assay: as above; conditions: 10 days, 0 = no effect, 100 = complete control
Outline: as §1

[4] = tested on: green foxtail (Setaria viridis); assay: as above; conditions: 10 days, 0 = no effect, 100 = complete control
Outline: as §1

kochia (Bassia scoparia) [5] = assay: as above; conditions: 10 days, 0 = no effect, 100 = complete control
Outline: as §1

[6] = tested on: oat, wild (wild oat, Avena fatua); assay: as above; conditions: 10 days, 0 = no effect, 100 = complete control
Outline: as §1

[7] = tested on: palmer (palmer amaranth, palmer pigweed, Amaranthus palmeri); assay: as above; conditions: 10 days, 0 = no effect, 100 = complete control
Outline: as §1

[8] = tested on: ragweed (common ragweed, Ambrosia artemisiifolia); assay: as above; conditions: 10 days, 0 = no effect, 100 = complete control
Outline: as §1

[9] = tested on: ryegrass, Italian (italian ryegrass, Lolium multiflorum); assay: as above; conditions: 10 days, 0 = no effect, 100 = complete control
Outline: as §1

soybean (Glycine max) [10] = assay: as above; conditions: 10 days, 0 = no effect, 100 = complete control
Outline: as §1

[11] = tested on: wheat (Triticum aestivum); assay: as above; conditions: 10 days, 0 = no effect, 100 = complete control
Outline: as §1

[12] = tested on: barnyardgrass (Echinochloa crus-galli); assay: Test A postemergence application, visual injury rating 0-100; conditions: 10 days
Outline: as §1

[13] = tested on: blackgrass (Alopecurus myosuroides); assay: as above; conditions: 10 days
Outline: as §1

corn (Zea mays) [14] = assay: as above; conditions: 10 days
Outline: as §1

[15] = tested on: galium (catchweed bedstraw, Galium aparine); assay: as above; conditions: 10 days
Outline: as §1

[16] = tested on: green foxtail (Setaria viridis); assay: as above; conditions: 10 days
Outline: as §1

[17] = tested on: horseweed (Erigeron canadensis); assay: as above; conditions: 10 days
Outline: as §1

kochia (Bassia scoparia) [18] = assay: as above; conditions: 10 days
Outline: as §1

[19] = tested on: oat, wild (wild oat, Avena fatua); assay: as above; conditions: 10 days
Outline: as §1

[20] = tested on: palmer (palmer amaranth, palmer pigweed, Amaranthus palmeri); assay: as above; conditions: 10 days
Outline: as §1

[21] = tested on: ragweed (common ragweed, Ambrosia artemisiifolia); assay: as above; conditions: 10 days
Outline: as §1

[22] = tested on: ryegrass, Italian (italian ryegrass, Lolium multiflorum); assay: as above; conditions: 10 days
Outline: as §1

soybean (Glycine max) [23] = assay: as above; conditions: 10 days
Outline: as §1

[24] = tested on: wheat (Triticum aestivum); assay: as above; conditions: 10 days
Outline: as §1

[25] = tested on: barnyardgrass (Echinochloa crusgalli); assay: Test B flooded paddy test, visual plant response rating 0-100; conditions: 250 g ai/ha, Flood, applied to paddy water, evaluated after 13 days
Outline: (§2)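 2-leaf plants; flood 3 cm over soil; compound dosed into paddy water; depth kept constant; greenhouse 13 d; visual scoring vs controls. Dash = no result.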

[26] = tested on: ducksalad (Heteranthera limosa); assay: as above; conditions: 250 g ai/ha, Flood, applied to paddy water, evaluated after 13 days
Outline: as §2

rice (Oryza sativa) = assay: as above; conditions: 250 g ai/ha, Flood, applied to paddy water, evaluated after 13 days
Outline: as §2

[27] = tested on: sedge, umbrella (small-flower umbrella sedge, Cyperus difformis); assay: as above; conditions: 250 g ai/ha, Flood, applied to paddy water, evaluated after 13 days
Outline: as §2

[28] = 31 g ai/ha, postemergence, 0 = no effect, 100 = complete control
[29] = Postemergence, 125 g ai/ha, 0 is no effect, 100 is complete control

## CCOC(=O)C1C=CC(NC(=O)C2(C)CN(c3cc(F)cc(Cl)c3)C(=O)O2)C1 (stereo not shown) [Compound 3]
[1]; 31 g ai/ha
  Barnyardgrass plant response rating (0-100): 90
[1]; 125 g ai/ha
  Barnyardgrass plant response rating (0 to 100 scale): 100
[2]; 31 g ai/ha
  Blackgrass plant response rating (0-100): 0
[2]; 125 g ai/ha
  Blackgrass plant response rating (0 to 100 scale): 70
Corn (Zea mays) [3]; 31 g ai/ha
  Corn plant response rating (0-100): 50
Corn (Zea mays) [3]; 125 g ai/ha
  Corn plant response rating (0 to 100 scale): 50
[4]; 31 g ai/ha
  Foxtail, Green plant response rating (0-100): 30
[4]; 125 g ai/ha
  Foxtail, Green plant response rating (0 to 100 scale): 100
Kochia (Bassia scoparia) [5]; 31 g ai/ha
  Kochia plant response rating (0-100): 70
Kochia (Bassia scoparia) [5]; 125 g ai/ha
  Kochia plant response rating (0 to 100 scale): 100
[6]; 31 g ai/ha
  Oat, Wild plant response rating (0-100): 10
[6]; 125 g ai/ha
  Oat, Wild plant response rating (0 to 100 scale): 90
[7]; 31 g ai/ha
  Amaranth, Palmer plant response rating (0-100): 80
[7]; 125 g ai/ha
  Amaranth, Palmer plant response rating (0 to 100 scale): 100
[8]; 31 g ai/ha
  Ragweed plant response rating (0-100): 10
[8]; 125 g ai/ha
  Ragweed plant response rating (0 to 100 scale): 30
[9]; 31 g ai/ha
  Ryegrass, Italian plant response rating (0-100): 50
[9]; 125 g ai/ha
  Ryegrass, Italian plant response rating (0 to 100 scale): 90
Soybean (Glycine max) [10]; 31 g ai/ha
  Soybean plant response rating (0-100): 20
Soybean (Glycine max) [10]; 125 g ai/ha
  Soybean plant response rating (0 to 100 scale): 80
[11]; 31 g ai/ha
  Wheat plant response rating (0-100): 50
[11]; 125 g ai/ha
  Wheat plant response rating (0 to 100 scale): 90
[12]; [28]
  Barnyardgrass plant response rating (0-100): 100
[12]; [29]
  Barnyardgrass plant response rating (0 to 100 scale): 100
[13]; [28]
  Blackgrass plant response rating (0-100): 80
[13]; [29]
  Blackgrass plant response rating (0 to 100 scale): 90
Corn (Zea mays) [14]; [28]
  Corn plant response rating (0-100): 100
Corn (Zea mays) [14]; [29]
  Corn plant response rating (0 to 100 scale): 100
[15]; [28]
  Galium plant response rating (0-100): 80
[15]; [29]
  Galium plant response rating (0 to 100 scale): 90
[16]; [28]
  Foxtail, Green plant response rating (0-100): 90
[16]; [29]
  Foxtail, Green plant response rating (0 to 100 scale): 90
[17]; [28]
  Horseweed plant response rating (0-100): 50
[17]; [29]
  Horseweed plant response rating (0 to 100 scale): 80
Kochia (Bassia scoparia) [18]; [28]
  Kochia plant response rating (0-100): 70
Kochia (Bassia scoparia) [18]; [29]
  Kochia plant response rating (0 to 100 scale): 70
[19]; [28]
  Oat, Wild plant response rating (0-100): 90
[19]; [29]
  Oat, Wild plant response rating (0 to 100 scale): 90
[20]; [28]
  Amaranth, Palmer plant response rating (0-100): 50
[20]; [29]
  Amaranth, Palmer / Pigweed, Palmer plant response rating (0 to 100 scale): 70
[21]; [28]
  Ragweed plant response rating (0-100): 50
[21]; [29]
  Ragweed plant response rating (0 to 100 scale): 80
[22]; [28]
  Ryegrass, Italian plant response rating (0-100): 80
[22]; [29]
  Ryegrass, Italian plant response rating (0 to 100 scale): 90
Soybean (Glycine max) [23]; [28]
  Soybean plant response rating (0-100): 90
Soybean (Glycine max) [23]; [29]
  Soybean plant response rating (0 to 100 scale): 90
[24]; [28]
  Wheat plant response rating (0-100): 90
[24]; [29]
  Wheat plant response rating (0 to 100 scale): 90
[25]
  Plant response rating, Barnyardgrass (0 to 100 scale, 0 is no effect and 100 is complete control): 95
[26]
  Plant response rating, Ducksalad (0 to 100 scale, 0 is no effect and 100 is complete control): 90
Rice (Oryza sativa)
  Plant response rating, Rice (0 to 100 scale, 0 is no effect and 100 is complete control): 70
[27]
  Plant response rating, Sedge, Umbrella (0 to 100 scale, 0 is no effect and 100 is complete control): 100
